The values that follow are results of earlier work, collected in patent publication US20070122482A1, “Method for preparing modified release pharmaceutical compositions” (priority 2003, published 2007).

Counter-ions that a name gives are not always drawn.

For data set [1] the following is noted: for Solubility in water: Table 1, Poorly-Soluble Drug Candidates; for Solubility In Water: Table 2, Poorly-Soluble Drugs with Low Bioavailability.
For data set [2] the following is noted: Table 2.

Regarding `CC(C)(C)NC(=O)[C@@H]1C[C@@H]2CCCC[C@@H]2CN1C[C@@H](O)[C@H](Cc1ccccc1)NC(=O)[C@H](CC(N)=O)NC(=O)c1ccc2ccccc2n1` [Saquinavir], the Solubility in water result in data set [1] is recorded as “Practically insoluble”.

With `C=CCC1(CC(C)C)C(=O)NC(=O)NC1=O` [Butalbital], in data set [1], the Solubility in water result was “Insoluble”. For `CCCC1O[C@@H]2C[C@H]3[C@@H]4CCC5=CC(=O)C=C[C@]5(C)[C@H]4[C@@H](O)C[C@]3(C)[C@]2(C(=O)CO)O1` (stereo partly shown) [Budesonide], in data set [1], the Solubility in water entry is recorded as “Sparingly” and the “Solubility In Water” value is on record as “Sparingly soluble”. The Bioavailability entry in data set [2] is listed as “Low (˜15%)”. For `CC(C(=O)O)c1ccc(-c2ccccc2)c(F)c1` (stereo not shown) [Flurbiprofen], the Solubility in water entry in data set [1] was “Slightly”.

Regarding `COc1cc([C@@H]2c3cc4c(cc3[C@@H](O[C@@H]3O[C@@H]5CO[C@@H](C)O[C@H]5[C@H](O)[C@H]3O)[C@H]3COC(=O)[C@H]23)OCO4)cc(OC)c1O` [Etoposide], the Solubility in water result in data set [1] is “Very Slightly”.

Turning to `CC(=O)N1CCN(c2ccc(OCC3COC(Cn4ccnc4)(c4ccc(Cl)cc4Cl)O3)cc2)CC1` (stereo not shown) [Ketoconazole], the Solubility in water result in data set [1] is “Insoluble”. For the molecule `CCOC(=O)[C@H](CCc1ccccc1)N[C@@H](C)C(=O)N1[C@H](C(=O)O)C[C@@H]2CCC[C@@H]21` [Ramipril], in data set [1], the Solubility in water result is “Insoluble”. For `O=C(O)Cc1ccccc1Nc1c(Cl)cccc1Cl` [Diclofenac sodium], the Solubility in water result in data set [1] was “Sparingly”. Take `Cc1cccc(Nc2ccccc2C(=O)O)c1C` [Mefenamic acid]: in data set [1], the Solubility in water result is listed as “Slightly”.

In the case of `CN(C/C=C/C#CC(C)(C)C)Cc1cccc2ccccc12` [Terbinafine], the Solubility in water result in data set [1] is “Slightly”.

In the case of `CO[C@]12C[C@@H](COC(=O)c3cncc(Br)c3)CN(C)[C@@H]1Cc1cn(C)c3cccc2c13` [Nicergoline], the Solubility in water entry in data set [1] was “Insoluble”.

As to `COc1ccc2[nH]c([S+]([O-])Cc3ncc(C)c(OC)c3C)nc2c1` (stereo not shown) [Omeprazole], the Solubility in water entry in data set [1] is “Slightly”. Consider `C[C@@](Cc1ccc(O)c(O)c1)(NN)C(=O)O` [Carbidopa], for which the Solubility in water result in data set [1] is recorded as “Slightly”. As to `CC(C)Cc1ccc(C(C)C(=O)O)cc1` (stereo not shown) [Ibuprofen], in data set [1], the Solubility in water result was “Insoluble”. Turning to `CCOC(=O)[C@H](CCc1ccccc1)N[C@@H](C)C(=O)N1CCC[C@H]1C(=O)O` [Enalapril], in data set [1], the Solubility in water entry is listed as “Sparingly”. For the molecule `CC[C@H]1OC(=O)[C@H](C)[C@@H](O[C@H]2C[C@@](C)(OC)[C@@H](O)[C@H](C)O2)[C@H](C)[C@@H](O[C@@H]2O[C@H](C)C[C@H](N(C)C)[C@H]2O)[C@](C)(OC)C[C@@H](C)C(=O)[C@H](C)[C@@H](O)[C@]1(C)O` [Clarithromycin], the Solubility in water result in data set [1] was “Insoluble”. Turning to `COc1ccc(Cl)cc1C(=O)NCCc1ccc(S(=O)(=O)NC(=O)NC2CCCCC2)cc1` [Glyburide], in data set [1], the Solubility in water entry is reported as “Sparingly”. Consider `COc1ccc2cc(CCC(C)=O)ccc2c1` [Nabumetone], for which, in data set [1], the Solubility in water entry is on record as “Insoluble” and the “Solubility In Water” value is “Insoluble”. Consider `CC(CCc1ccc(O)cc1)NCCc1ccc(O)c(O)c1` (stereo not shown) [Dobutamine], for which the Solubility in water entry in data set [1] is listed as “Sparingly”. Turning to `OCCN1CCN(CCCN2c3ccccc3Sc3ccc(Cl)cc32)CC1` [Perphenazine], the “Bioavailability (in words)” value in data set [2] is on record as “Low”.

Consider `COc1cc2nc(N3CCN(C(=O)C4COc5ccccc5O4)CC3)nc(N)c2cc1OC` (stereo not shown) [Doxazosin], for which the Solubility in water entry in data set [1] is given as “Slightly”. For `O=[N+]([O-])O[C@H]1CO[C@H]2[C@@H]1OC[C@H]2O[N+](=O)[O-]` [Isosorbide dinitrate], in data set [1], the Solubility in water entry is given as “Sparingly” and the “Solubility In Water” value is given as “Sparingly soluble”.

In the case of `CC(C)(C)NC(=O)[C@H]1CC[C@H]2[C@@H]3CC[C@H]4NC(=O)C=C[C@]4(C)[C@H]3CC[C@]12C` [Finasteride], the Solubility in water result in data set [1] is “Insoluble”. In the case of `CC(=O)O[C@H]1C(=O)[C@@]2(C)[C@H]([C@H](OC(=O)c3ccccc3)[C@]3(O)C[C@H](OC(=O)[C@H](O)[C@@H](NC(=O)c4ccccc4)c4ccccc4)C(C)=C1C3(C)C)[C@]1(OC(C)=O)CO[C@@H]1C[C@@H]2O` [Paclitaxel], in data set [1], the Solubility in water result was “Insoluble”. Turning to `CN1CCCC(n2nc(Cc3ccc(Cl)cc3)c3ccccc3c2=O)CC1` (stereo not shown) [Azelastine], the Solubility in water result in data set [1] is reported as “Insoluble”.

With Cholestyramine, in data set [1], the Solubility in water entry was “Insoluble”. In the case of `Nc1nnc(-c2cccc(Cl)c2Cl)c(N)n1` [Lamotrigine], in data set [1], the Solubility in water result is “Slightly”. In the case of `CN[C@H]1CC[C@@H](c2ccc(Cl)c(Cl)c2)c2ccccc21` [Sertraline], in data set [1], the Solubility in water entry is listed as “Slightly” and the “Solubility In Water” value is listed as “Slightly soluble”. Take `CN1CCC[C@@H]1CCO[C@](C)(c1ccccc1)c1ccc(Cl)cc1` [Clemastine fumarate]: the “Solubility In Water” value in data set [1] is recorded as “Slightly soluble”. In addition, the Bioavailability entry in data set [2] is recorded as “Low (˜39%)”. As for `COc1cc(N)c(Cl)cc1C(=O)NC1CCN(CCCOc2ccc(F)cc2)CC1OC` (stereo not shown) [Cisapride], in data set [1], the Solubility in water entry is “Insoluble” and the “Solubility In Water” value is on record as “Insoluble”. In the case of `C#C[C@]1(O)CC[C@H]2[C@@H]3CCC4=Cc5oncc5C[C@]4(C)[C@H]3CC[C@@]21C` [Danazol], in data set [2], the “Bioavailability (in words)” value is reported as “Low”. `COc1ccc(CCN2CCC(Nc3nc4ccccc4n3Cc3ccc(F)cc3)CC2)cc1` [Astemizole]: in data set [1], the Solubility in water result is “Insoluble” and the “Solubility In Water” value is given as “Insoluble”. The “Bioavailability (in words)” value in data set [2] is recorded as “Low-moderate”. As for `NC(=O)N1c2ccccc2C=Cc2ccccc21` [Carbamazepine], the Solubility in water result in data set [1] is recorded as “Insoluble”. Turning to `CCCC(CCC)C(=O)O` [Divalproex], the Solubility in water entry in data set [1] is “Slightly”. With `C[C@@H]1C[C@H]2[C@@H]3CCC4=CC(=O)C=C[C@]4(C)[C@@]3(Cl)[C@@H](O)C[C@]2(C)[C@@]1(O)C(=O)CCl` [Mometasone], in data set [1], the Solubility in water entry is “Insoluble”.

For `CCn1cc(C(=O)O)c(=O)c2cc(F)c(N3CCNCC3)cc21` [Norfloxacin], in data set [1], the Solubility in water entry is on record as “Slightly” and the “Solubility In Water” value is recorded as “Slightly soluble”.

On to `CCOC(=O)C1=C(C)NC(C)=C(C(=O)OC)C1c1cccc(Cl)c1Cl` (stereo not shown) [Felodipine], for which, in data set [1], the Solubility in water entry is on record as “Insoluble” and the “Solubility In Water” value is reported as “Insoluble”. Regarding `CCCCCc1cc(O)c2c(c1)OC(C)(C)[C@@H]1CCC(C)=C[C@@H]21` [Dronabinol], the “Solubility In Water” value in data set [1] is “Insoluble”.

As to `Nc1ccc(O)c(C(=O)O)c1` [Mesalamine], the Bioavailability entry in data set [2] is reported as “Low (˜20%)”.

As to `OC(CCN1CCCCC1)(c1ccccc1)C1CC2C=CC1C2` (stereo not shown) [Biperiden], the “Solubility In Water” value in data set [1] is listed as “Sparingly soluble”.

Regarding `CCOC(=O)C1=C(COCCN)NC(C)=C(C(=O)OC)C1c1ccccc1Cl` (stereo not shown) [Amlodipine], in data set [1], the Solubility in water result is given as “Slightly”.

Consider `Cc1ncc2n1-c1ccc(Cl)cc1C(c1ccccc1F)=NC2` [Midazolam], for which, in data set [1], the Solubility in water result is given as “Insoluble”. Regarding `Cn1cnc([N+](=O)[O-])c1Sc1ncnc2nc[nH]c12` [Azathioprine], the Solubility in water result in data set [1] is reported as “Insoluble”. Regarding `CN1CCN(C2=Nc3cc(Cl)ccc3Nc3ccccc32)CC1` [Clozapine], in data set [1], the Solubility in water result was “Slightly”. Take `COCCCC/C(=N\OCCN)c1ccc(C(F)(F)F)cc1` [Fluvoxamine]: in data set [1], the Solubility in water result is recorded as “Sparingly”. For the molecule `CC(=O)S[C@@H]1CC2=CC(=O)CC[C@]2(C)[C@H]2CC[C@@]3(C)[C@@H](CC[C@@]34CCC(=O)O4)[C@H]12` [Spironolactone], the “Solubility In Water” value in data set [1] is on record as “Insoluble”.

Turning to `OCCN(CCO)c1nc(N2CCCCC2)c2nc(N(CCO)CCO)nc(N3CCCCC3)c2n1` [Dipyridamole], the Solubility in water entry in data set [1] is listed as “Slightly”.

For the molecule `CC[C@H](C)C(=O)O[C@H]1C[C@@H](C)C=C2C=C[C@H](C)[C@H](CC[C@@H]3C[C@@H](O)CC(=O)O3)[C@H]21` [Lovastatin], in data set [1], the Solubility in water entry was “Insoluble” and the “Solubility In Water” value is listed as “Insoluble”. Regarding `Cc1nnc2n1-c1ccc(Cl)cc1C(c1ccccc1)=NC2` [Alprazolam], in data set [1], the Solubility in water result is recorded as “Insoluble”. As to `OC(Cn1cncn1)(Cn1cncn1)c1ccc(F)cc1F` [Fluconazole], the Solubility in water result in data set [1] is given as “Slightly”. `NC(N)=Nc1nc(CSCCC(N)=NS(N)(=O)=O)cs1` [Famotidine]: in data set [1], the Solubility in water result is on record as “Slightly” and the “Solubility In Water” value is “Slightly soluble”. As to `CO/N=C(\C(=O)N[C@@H]1C(=O)N2C(C(=O)O)=C(COC(C)=O)CS[C@H]12)c1csc(N)n1` [Cefotaxime], the Solubility in water entry in data set [1] is recorded as “Sparingly”. Turning to `OCCN1CCN(CCCN2c3ccccc3Sc3ccc(C(F)(F)F)cc32)CC1` [Fluphenazine], in data set [1], the “Solubility In Water” value is given as “Insoluble”. For the molecule `CC(C)(C)c1ccc(C(O)CCCN2CCC(C(O)(c3ccccc3)c3ccccc3)CC2)cc1` (stereo not shown) [Terfenadine], the Solubility in water entry in data set [1] is recorded as “Slightly”. `Cc1c(OCC(F)(F)F)ccnc1C[S+]([O-])c1nc2ccccc2[nH]1` (stereo not shown) [Lansoprazole]: in data set [1], the Solubility in water entry is listed as “Insoluble”.

In the case of `CN1C(C(=O)Nc2ccccn2)=C(O)c2ccccc2S1(=O)=O` [Piroxicam], the Solubility in water entry in data set [1] is “Sparingly”. For the molecule `CCOC(=O)[C@H](CCc1ccccc1)N[C@@H](C)C(=O)N1Cc2ccccc2C[C@H]1C(=O)O` [Quinapril], the Solubility in water entry in data set [1] is reported as “Insoluble”. Consider `Cc1ccc(-c2nc3ccc(C)cn3c2CC(=O)N(C)C)cc1` [Zolpidem], for which the Solubility in water entry in data set [1] is on record as “Sparingly”. As for `COC(=O)C1=C(C)NC(C)=C(C(=O)OC(C)C)C1c1cccc2nonc12` (stereo not shown) [Isradipine], in data set [1], the Solubility in water result is recorded as “Insoluble” and the “Solubility In Water” value is on record as “Insoluble”.

For the molecule `O=C1NC(=O)C(c2ccccc2)(c2ccccc2)N1` [Phenytoin], in data set [1], the Solubility in water entry is “Insoluble”.

With `CCc1cccc2c3c([nH]c12)C(CC)(CC(=O)O)OCC3` (stereo not shown) [Etodolac], the Solubility in water entry in data set [1] is on record as “Insoluble”. In the case of `CC1=C(/C=C/C(C)=C/C=C/C(C)=C\C(=O)O)C(C)(C)CCC1` [Isotretinoin], the Solubility in water result in data set [1] is recorded as “Insoluble”.
